Patent US7323541B2, “Polypeptide DNA thereof and use of the same” (Takeda Pharmaceutical Company Limited, priority 2001, dated 2008)
Positions count from the first letter of the chain named. Where no end group is shown, it is not given here.

Assays:
[1] = target: T1, membrane fraction of TGR23-2 expressing CHO cells (Homo sapiens, UniProt Q6W5P4, N107I/Q344R); experiment: GTPγS binding activity in membrane fraction; assay type: biochemical
T1 construct: the clones having the cDNA of TGR23-2, which is contained in pTB2174, were selected; expressed in transfected cells; host or cells: hamster CHO/dhfr- cells, vector pAKKO-111H (pAKKO-TGR23-2)
T1 sequence (Q6W5P4 1-371 N107I/Q344R): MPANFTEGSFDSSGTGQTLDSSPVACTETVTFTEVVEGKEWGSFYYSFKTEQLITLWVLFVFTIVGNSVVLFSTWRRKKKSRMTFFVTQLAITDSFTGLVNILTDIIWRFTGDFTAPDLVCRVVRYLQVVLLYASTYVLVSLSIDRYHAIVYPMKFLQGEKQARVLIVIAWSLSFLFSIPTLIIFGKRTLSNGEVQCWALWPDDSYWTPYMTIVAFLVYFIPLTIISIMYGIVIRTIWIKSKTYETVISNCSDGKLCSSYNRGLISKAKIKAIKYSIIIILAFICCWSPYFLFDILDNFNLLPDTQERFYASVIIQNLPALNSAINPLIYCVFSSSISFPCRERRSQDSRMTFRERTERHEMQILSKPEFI
Description: Enhancing activity of binding of [^35S]-Guanosine 5′-(γ-thio) triphosphate in the membrane fraction of TGR23-2 expressing CHO cells was measured by the following method. Firstly, it is described about preparation of membrane fraction. Twenty (20) ml of homogenation buffer (10 mM HEPES (pH7.3), 5 mM EDTA, 0.52 mM PMSF, 10 μg/ml pepstatin, 8 μg/ml E64, 20 μg/ml leupeptin) was added to 8×10^7 of TGR23-2 expressing CHO cells, and the cells were disrupted using Polytron (12,000 rpm, 30 seconds×3 times). The cell-disrupted fluids were centrifuged (1,000 g for 15 minutes) to get supernatant. Subsequently the supernatant was ultracentrifuged (Beckman type 30 rotor, 30,000 rpm, one hour), and the precipitate obtained was collected as a membrane fraction of TGR23-2 expressing CHO cells. The GTPγS binding activity was assayed as follows. The membrane fraction of TGR23-2 expressing CHO cells was diluted with membrane dilution buffer (50 mM Tris-HCl buffer (pH7.4), 5 mM MgCl2, 150 mM NaCl, 0.03% NaN3, 0.1% BSA, 1 μM GDP) to get cell membrane fraction solution for assay at the protein concentration of […]. Two (2) μl of 50 nM [^35S]-guanosine 5′-(γ-thio) triphosphate (NEN) and sample were added to 200 μl of cell membrane fraction solution for assay, and the mixture was incubated at 25° C. for one (1) hour. The mixture was filtered, and the filter was washed twice with 1.5 ml of washing buffer (50 mM Tris-HCl buffer (pH7.4), 5 mM MgCl2, 1 mM EDTA, 0.03% NaN3, 0.1% BSA). Then the radioactivity on the filter was measured by liquid scintillation counter. Human TGR23-2 ligand (1-20) prepared by the method described in Example 17, rat TGR23-2 ligand (1-18) prepared by the method described in Example 19 and mouse TGR23-2 ligand (1-20) prepared by the method described in Example 20 were administered to TGR23-2 expressing CHO cells at a variety of concentrations according to the method described above, and the GTPγS binding activity was determined.

[2] = target: T2, TGR23-2 expressing CHO cells (Homo sapiens, UniProt Q6W5P4, N107I/Q344R); experiment: Intracellular Ca ion concentration increasing activity using FLIPR; assay type: cell-based; settings: variety of concentrations
T2 construct: the clones having the cDNA of TGR23-2, which is contained in pTB2174, were selected; expressed in transfected cells; host or cells: hamster CHO/dhfr- cells, vector pAKKO-111H (pAKKO-TGR23-2)
T2 sequence (Q6W5P4 1-371 N107I/Q344R): T1 sequence (Q6W5P4 1-371 N107I/Q344R)
Description: (§1) An enhancing activity of intracellular Ca^2+ release was assayed using FLIPR (Molecular Devices, Inc.). The CHO/TGR23-2 cells prepared in Example 1 and selected in Example 2 were plated on 96-well plate at 3×10^4 cells/well and cultured for 24 hours. A loading buffer was prepared by adding 1 vial of Fluo 3-AM to 10 ml of Hanks' solution (pH7.4) containing 2.5 mM Probenecid and 20 mM HEPES (hereafter, Hanks' solution (pH7.4) containing 2.5 mM Probenecid and 20 mM HEPES may be referred to as a washing buffer). The culture medium was discarded from the culture plate and 100 μl/well of the loading buffer were added to the cells. Then, the cells were incubated for 60 minutes in the incubator. After the loading buffer was removed from the culture plate and the cells were washed with the washing buffer, the plate was put in place of FLIPR. A sample was prepared by adding a sample buffer, which 2 mg/ml BSA and 1 mg/ml CHAPS were added to the washing buffer, to lyophilized product, stirring and treating by ultrasonication for 30 minutes, and transferred to 96-well sample plate. This sample plate was also put in place for assay. The enhancing activity of intracellular Ca^2+ release was measured as an increase of fluorescent intensity, which is raised by addition of the sample. Human TGR23-2 ligand (1-20) obtained in Example 17 was administered to TGR23-1 expressing CHO cells and TGR23-2 expressing CHO cells at a variety of concentrations according to the method described in Example 5, and the increasing activity of intracellular Ca ion concentration was determined using FLIPR. […] Rat TGR23-2 ligand (1-18) prepared by the method described in Example 19 and mouse TGR23-2 ligand (1-20) prepared by the method described in Example 20 were administered to TGR23-1 expressing CHO cells and TGR23-2 expressing CHO cells at a variety of concentrations according to the method described in Example 5, and the increasing activity of intracellular Ca ion concentration was determined using FLIPR.

[3] = target: T3, TGR23-1 expressing CHO cells (Homo sapiens, UniProt Q6W5P4); experiment: as above; assay type: cell-based; settings: variety of concentrations
T3 construct: the clones having the cDNA of TGR23-1, which is contained in pTB2173, were selected; expressed in transfected cells; host or cells: hamster CHO/dhfr- cells, vector pAKKO-111H (pAKKO-TGR23-1), clones No. 49 and No. 52
T3 sequence (Q6W5P4 1-371): T1 sequence (Q6W5P4 1-371 N107I/Q344R) with I107N, R344Q
Description: as §1

TGR23 gene in LS 174T = experiment: Reduction of TGR23 gene expression (TaqMan PCR); assay type: cell-based, human; settings: overnight after transfection
Description: (§2) The human colon cancer cell lines COLO 205 and LS 174T, wherein both were used in Example 46, were suspended in the same medium as that used in Example 46. The COLO 205 was seeded at the cell density of 24,000 per well to 24-well collagen type I coated plate (IWAKI), and the LS 174T was seeded at the cell density of 18,000 per well to 24-well flat bottom tissue culture plate (BD Falcon). After cell culture under 5% CO2 gas flow at 37° C. for overnight, in accordance with the method described in Example 46, the antisense oligonucleotide and control oligonucleotide, wherein both were used in Example 46, were transfected. Herein, adding volume of the oligonucleotide solution per well was 390 μl for COLO 205 and 300 μl for LS 174T. After transfection, the cells were cultured under 5% CO2 gas flow at 37° C. for overnight. Subsequently, using RNeasy Mini Total RNA Kit (QIAGEN), total RNA was extracted. Using the thus obtained total RNA as a template and TaqMan Reverse Transcription Reagents (Applied Biosystems), according to the attached protocol, reverse transcription reaction was carried out. Then using TaqMan Universal PCR Master Mix (Applied Biosystems), to the reaction sixture, cDNA corresponding 1.5 to 3 ng of total RNA as a template, 500 nM each of two primers (SEQ ID NO: 9 and SEQ ID NO: 10) and 100 nM FM-labeled probe (SEQ ID NO: 11) were added. The expressed copy numbers of the TGR23 gene were measured. The PCR reaction comprised the incubation at 50° C. for 2 minutes and 95° C. for 10 minutes, followed by the cycle set to include at 95° C. for 15 seconds and at 60° C. for one minute, which is repeated 40 times. When the antisense oligonucleotide and the control oligonucleotide were not transfected, an expression level of the TGR23 gene per 1 ng of total RNA was 620 copies for COLO 205 and 290 copies for LS 174T, whereas in the group with antisense oligonucleotide, it was 210 copies for COLO 205 and 150 copies for LS 174T. […] On the other hand, in the group with control oligonucleotide used as a negative control, the expression was 590 copies for COLO 205 and 280 copies for LS 174T, wherein it was not observed a statistically significant reduction of expression level, compared with non-transfection group.

TGR23 gene in COLO 205 = experiment: Reduction of TGR23 gene expression (TaqMan PCR); assay type: cell-based, human; settings: COLO 205, overnight after transfection
Description: as §2

HCT 116 = experiment: Apoptosis induction (Cell Death Detection ELISA PLUS); assay type: cell-based, human; settings: HCT 116, oligonucleotide 520 nM, three days
Description: (§3) Human colon cancer cell line COLO 205 acquired from ATCC was suspended in the RPMI-1640 medium (containing 25 mM HEPES) supplemented with 10% fetal calf serum (ATCC), and seeded at the cell density of 4000 per well in 96-well collagen type I coated plate (IWAKI). Human colon cancer cell line LS 174T acquired from ATCC was suspended in the Eagle's MEM, which is supplied from Invitrogen, supplemented with 10% fetal calf serum (ATCC), and seeded at the cell density of 3000 per well in 96-well flat bottom culture plate (BD Falcon). Human colon cancer cell line HCT 116 (ATCC) was suspended in D-MEM medium (containing 10 mM HEPES), which is supplied from Invitrogen, supplemented with 10% fetal calf serum (ATCC), and seeded at the cell density of 3000 per well in 96-well flat bottom culture plate (BD Falcon). After incubation under 5% CO2 gas flow at 37° C. for overnight, antisense oligonucleotide was transfected.
(§4) Antisense oligonucleotide sequence (SEQ ID NO: 123), which hybridizes to the translation region of TGR23 gene, was designed. Phosphorothioate-oligonucleotide was synthesized and purified by HPLC to use the transfection experiment (hereinafter, referred to as antisense oligonucleotide). For control, a reverse sequence (SEQ ID NO: 124) of the base sequence represented by SEQ ID NO: 123 was phosphorothioated and purified by HPLC to use (hereinafter, referred to as control oligonucleotide).
(§5) Specifically, in the case of COLO 205, to FuGENE™6 Transfection Reagent (Roche Diagnostics), which was diluted 167 fold with Opti-MEM I (Invitrogen), antisense oligonucleotide or control oligonucleotide was added. The mixed oligonucleotide solution was added to the plate at the ratio of 65 μl per well. The final concentration of oligonucleotide was adjusted to 200 nM. In the case of LS 174T, to Lipofectamine™2000 (Invitrogen), which was diluted 32 fold with Opti-MEM I (Invitrogen), antisense oligonucleotide or control oligonucleotide, which was diluted with Opti-MEM I (Invitrogen), was added at the ratio of 1:1. The mixed oligonucleotide solution was added to the plate at the ratio of 50 μl per well. The final concentration of oligonucleotide was adjusted to 33 nM. In the case of HCT 116, to OLIGOFECTAMINE™ Reagent (Invitrogen), which was diluted 5 fold with Opti-MEM I (Invitrogen), antisense oligonucleotide or control oligonucleotide, which was diluted with Opti-MEM I (Invitrogen), was added at the ratio of 3:8. The mixed oligonucleotide solution was added to the plate at the ratio of 40 μl per well. The final concentration of oligonucleotide was adjusted to 520 nM.
(§6) Under the above conditions, culture was continued for further three days. Using Cell Death Detection ELISA^PLUS Kit (Roche Diagnostics), in accordance with the attached protocol, apopyosis induction activity by the above oligonucleotide was measured.

LS 174T = experiment: as above; assay type: cell-based, human; settings: LS174T, oligonucleotide 33 nM, three days
Description: as §3, §4, §5, §6

COLO 205 = experiment: as above; assay type: cell-based, human; settings: COLO 205, oligonucleotide 200 nM, three days
Description: as §3, §4, §5, §6

SFRNGVGSGAKKTSFRRAKQ [mouse TGR23-2 ligand (1-20)]
GTPγS binding activity [1]: enhance the GTPγS binding activity | increase of intracellular Ca ion concentration [2]: clearly enhance an increase of intracellular Ca ion concentration | increase of intracellular Ca ion concentration [3]: clearly enhance an increase of intracellular Ca ion concentration

control oligonucleotide: phosphorothioated reverse sequence of SEQ ID NO: 123, negative control (TTAACTATTGAGACACCCAG; DNA, all phosphorothioate, methylation of C not given here) [reference compound]
expression level of the TGR23 gene per 1 ng of total RNA (TGR23 gene in LS 174T): 280 copies | expression level of the TGR23 gene per 1 ng of total RNA (TGR23 gene in COLO 205): 590 copies | Apoptosis inducing activity (A405-A492), Average (HCT 116): 0.72 | Apoptosis inducing activity (A405-A492), Average (LS 174T): 0.88 | Apoptosis inducing activity (A405-A492), Average (COLO 205): 0.52
